According to ChEMBL document CHEMBL5365475, “Design, synthesis and antiplasmodial evaluation of new amide-, carbamate-, and ureido-type harmicines” (Bioorg Med Chem, 2023):
Each block holds one compound with its values, some of them ahead of it. Activity calls are given as the source filed them. The calls are words filed in the database; no cut-off is given here.

Columns and labels:
[1] = tested on: Plasmodium falciparum; test: Antimalarial activity against erythrocytic stage of chloroquine-sensitive Plasmodium falciparum 3D7 measured after 3 days by HRP2-ELISA analysis; assay type: functional, organism-based; details: 3D7, 72 h
[2] = tested on: HepG2; test: Cytotoxicity against human HepG2 cells assessed as reduction in cell viability incubated for 72 hrs by MTT assay; assay type: functional, cell-based; details: HepG2, 72 h
[3] = Selectivity index, ratio of IC50 for cytotoxicity against human HepG2 cells to IC50 for erythrocytic stage of chloroquine-sensitive Plasmodium falciparum 3D7; assay type: toxicity, cell-based; details: read-out: Ratio IC50
[4] = tested on: Plasmodium berghei; test: Antiplasmodial activity against luciferase-expressing Plasmodium berghei infected in human Huh-7 cells assessed as reduction in parasite load at 1 to 10 uM preincubated with cells for 1 hr followed by parasite infection and measured after 46 hrs by bioluminescence assay; assay type: functional, organism-based; details: dose 1-10 µM, time 47.0 hrs
[5] = tested on: Plasmodium falciparum; test: Antimalarial activity against erythrocytic stage of chloroquine-resistant Plasmodium falciparum Dd2 measured after 3 days by HRP2-ELISA analysis; assay type: functional, organism-based; details: Dd2, 72 h
[6] = tested on: Plasmodium falciparum; test: Resistance index, ratio of IC50 for antiplasmodial activity against chloroquine-resistant Plasmodium falciparum Dd2 to IC50 for antiplasmodial activity against chloroquine-sensitive Plasmodium falciparum 3D7; assay type: functional
[7] = tested on: Plasmodium berghei; test: Antiplasmodial activity against luciferase-expressing Plasmodium berghei infected in human Huh-7 cells assessed as reduction in parasite load preincubated with cells for 1 hr followed by parasite infection and measured after 46 hrs by bioluminescence assay; assay type: functional, organism-based

IC50 [1]: 410 nM
SMILES: COc1ccc2c3ccnc(C)c3n(CCNC(=O)/C=C/c3ccc(Br)cc3)c2c1
IC50 [2]: 8580 nM | selectivity ratio [3]: 8.76 | Activity [4]: Active

SMILES: COc1ccc2c3ccnc(C)c3n(CCNC(=O)OC/C=C/c3ccccc3Cl)c2c1
IC50 [1]: 1240 nM | IC50 [5]: 1330 nM | Ratio IC50 [6]: 1.07

SMILES: COc1ccc2c3ccnc(C)c3n(CCNC(=O)/C=C/c3ccc([N+](=O)[O-])cc3)c2c1
IC50 [1]: 1360 nM | IC50 [5]: 2050 nM | Ratio IC50 [6]: 1.51 | IC50 [2]: 17500 nM | selectivity ratio [3]: 31.8 | Activity [4]: Active

SMILES: COc1ccc2c3ccnc(C)c3n(CCNC(=O)OC/C=C/c3cccc(OC(F)(F)F)c3)c2c1
IC50 [1]: 680 nM | IC50 [5]: 1780 nM | Ratio IC50 [6]: 2.62 | IC50 [2]: 8710 nM | selectivity ratio [3]: 12.8 | Activity [4]: Active

SMILES: COc1ccc2c3ccnc(C)c3n(CCNC(=O)/C=C/c3cccc(OC(F)(F)F)c3)c2c1
IC50 [1]: 350 nM | IC50 [5]: 2110 nM | Ratio IC50 [6]: 6.03 | IC50 [2]: 6640 nM | selectivity ratio [3]: 16.2 | IC50 [7]: 2290 nM | Activity [4]: Active

SMILES: COc1ccc2c3ccnc(C)c3n(CCNC(=O)OC/C=C/c3cccc(C(F)(F)F)c3)c2c1
IC50 [1]: 500 nM | IC50 [5]: 1920 nM | Ratio IC50 [6]: 3.84 | Activity [4]: Active

SMILES: COc1cc(NC(C)CCCN)c2ncccc2c1 (configuration not stated)
Activity [4]: Active

SMILES: COc1ccc2c3ccnc(C)c3n(CCNC(=O)OC/C=C/c3ccc(C)cc3)c2c1
IC50 [1]: 1130 nM | IC50 [5]: 2280 nM | Ratio IC50 [6]: 2.48 | IC50 [2]: 9920 nM | selectivity ratio [3]: 8.78 | Activity [4]: Active

SMILES: COc1ccc2c3ccnc(C)c3n(CCNC(=O)OC/C=C/c3ccc(C(F)(F)F)cc3)c2c1
IC50 [1]: 790 nM | IC50 [5]: 700 nM | Ratio IC50 [6]: 0.89 | IC50 [2]: 6710 nM | selectivity ratio [3]: 8.49 | Activity [4]: Active

SMILES: COc1ccc2c(c1)[nH]c1c(C)nccc12 [HARMINE]
IC50 [5]: > 27700 nM | Ratio IC50 [6]: > 3.36 | IC50 [2]: > 250000 nM | selectivity ratio [3]: 30

SMILES: COc1ccc2c3ccnc(C)c3n(CCNC(=O)OC/C=C/c3cc(C(F)(F)F)cc(C(F)(F)F)c3)c2c1
IC50 [1]: 650 nM | IC50 [5]: 2630 nM | Ratio IC50 [6]: 4.05 | IC50 [2]: 7190 nM | selectivity ratio [3]: 21.8

SMILES: COc1ccc2c3ccnc(C)c3n(CCNC(=O)OC/C=C/c3cccc(Cl)c3)c2c1
IC50 [1]: 970 nM | IC50 [5]: 1190 nM | Ratio IC50 [6]: 1.23 | IC50 [2]: 8520 nM | selectivity ratio [3]: 8.78 | Activity [4]: Active

SMILES: COc1ccc2c3ccnc(C)c3n(CCNC(=O)/C=C/c3ccc(C)cc3)c2c1
IC50 [1]: 980 nM | IC50 [5]: 640 nM | Ratio IC50 [6]: 0.65 | IC50 [2]: 8160 nM | selectivity ratio [3]: 6 | Activity [4]: Active

SMILES: COc1ccc2c3ccnc(C)c3n(CCNC(=O)NC/C=C/c3cccc(C(F)(F)F)c3)c2c1
IC50 [1]: 220 nM | IC50 [5]: 1070 nM | Ratio IC50 [6]: 4.86 | IC50 [2]: 9840 nM | selectivity ratio [3]: 44.7 | IC50 [7]: 2890 nM | Activity [4]: Active

SMILES: COc1ccc2c3ccnc(C)c3n(CCNC(=O)OC/C=C/c3ccc([N+](=O)[O-])cc3)c2c1
IC50 [1]: 360 nM | IC50 [5]: 330 nM | Ratio IC50 [6]: 0.92 | Activity [4]: Active

SMILES: COc1ccc2c3ccnc(C)c3n(CCNC(=O)OC/C=C/c3ccccc3)c2c1
IC50 [1]: 550 nM | IC50 [5]: 1370 nM | Ratio IC50 [6]: 2.49 | IC50 [2]: 7210 nM | selectivity ratio [3]: 18.5 | IC50 [7]: 3380 nM | Activity [4]: Active

SMILES: CCCOc1ccc(/C=C/CNC(=O)NCCn2c3cc(OC)ccc3c3ccnc(C)c32)cc1
IC50 [1]: 420 nM | IC50 [5]: 1120 nM | Ratio IC50 [6]: 2.67 | IC50 [2]: 4330 nM | selectivity ratio [3]: 10.3 | Activity [4]: Active

SMILES: CCCOc1ccc(/C=C/COC(=O)NCCn2c3cc(OC)ccc3c3ccnc(C)c32)cc1
IC50 [1]: 390 nM | IC50 [5]: 830 nM | Ratio IC50 [6]: 2.13 | IC50 [2]: 9960 nM | selectivity ratio [3]: 19.9 | Activity [4]: Active

SMILES: COc1ccc2c3ccnc(C)c3n(CCNC(=O)OC/C=C/c3ccc(Br)cc3)c2c1
IC50 [1]: 420 nM | IC50 [5]: 1090 nM | Ratio IC50 [6]: 2.6 | IC50 [2]: 9050 nM | selectivity ratio [3]: 21.6 | Activity [4]: Active

SMILES: COc1ccc2c3ccnc(C)c3n(CCNC(=O)/C=C/c3cccc(Cl)c3)c2c1
IC50 [1]: 330 nM | IC50 [5]: 680 nM | Ratio IC50 [6]: 2.06 | IC50 [2]: 8970 nM | selectivity ratio [3]: 25.6 | Activity [4]: Active

SMILES: COc1ccc2c3ccnc(C)c3n(CCNC(=O)/C=C/c3ccccc3Cl)c2c1
IC50 [1]: 320 nM | IC50 [5]: 500 nM | Ratio IC50 [6]: 1.56 | IC50 [2]: 7190 nM | selectivity ratio [3]: 21.8 | Activity [4]: Active
